Test results published in ChEMBL document CHEMBL5154778, “Discovery and Structure-Based Optimization of Novel Atg4B Inhibitors for the Treatment of Castration-Resistant Prostate Cancer” (J Med Chem, 2022).
Active and inactive are the calls of the source. No cut-off for these calls is given here.

Assays:
Cysteine protease ATG4B [1] = target: T1, Cysteine protease ATG4B (Homo sapiens, UniProt Q9Y4P1); assay: Inhibition of recombinant ATG4B (unknown origin) expressed in Escherichia coli BL21(DE3) pLysS cells using LC3-GST as substrate incubated for 3 hrs by coomassie brilliant blue staining based assay
T1 sequence (Q9Y4P1 whole entry): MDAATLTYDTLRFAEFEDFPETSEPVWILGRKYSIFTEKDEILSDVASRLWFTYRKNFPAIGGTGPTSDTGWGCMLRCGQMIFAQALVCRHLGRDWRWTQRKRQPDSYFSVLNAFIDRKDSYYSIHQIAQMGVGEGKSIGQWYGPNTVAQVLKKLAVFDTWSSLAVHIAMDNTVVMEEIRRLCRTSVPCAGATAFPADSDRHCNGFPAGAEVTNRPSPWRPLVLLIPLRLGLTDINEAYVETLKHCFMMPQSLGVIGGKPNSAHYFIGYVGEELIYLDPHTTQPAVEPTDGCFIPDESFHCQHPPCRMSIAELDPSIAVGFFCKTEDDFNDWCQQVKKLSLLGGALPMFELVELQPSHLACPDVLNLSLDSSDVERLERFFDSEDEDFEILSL

Phospholipase A2 = Phospholipase A2 (Homo sapiens, UniProt P04054); assay: Inhibition of PLA2 (unknown origin)
Homo sapiens = organism: Homo sapiens; assay: Selectivity ratio of IC50 for inhibition of PLA2 (unknown origin) to IC50 for inhibition of recombinant ATG4B (unknown origin) expressed in Escherichia coli BL21(DE3) pLysS cells
LNCaP [2] = assay: Induction of autophagy in human LNCaP cells assessed as increase in GABARAP2 level at 10 uM preincubated for 2 hrs followed by medium change into aminoacid free medium for 3 hrs by immunoblotting analysis; type: functional, cell-based; details: time 5.0 hrs
LNCaP [3] = assay: Inhibition of AFM induced autophagy in human LNCaP cells assessed as decrease in autophagic vesicles at 1 uM preincubated for 2 hrs followed by medium change into aminoacid free medium for 3 hrs by DAP green staining based assay; type: functional, cell-based; details: time 5.0 hrs
LNCaP [4] = assay: Induction of apoptosis in human LNCaP cells assessed as increase in cleaved PARP level at 5 uM preincubated for 2 hrs followed by apalutamide addition and measured after 24 hrs by immunoblotting analysis; type: functional, cell-based; details: time 26.0 hrs
Cysteine protease ATG4B [5] = target: T1, Cysteine protease ATG4B; assay: Inhibition of recombinant ATG4B (unknown origin) expressed in Escherichia coli BL21(DE3) pLysS cells assessed as inhibition constant using LC3-GST as substrate incubated for 3 hrs by coomassie brilliant blue staining based assay
LNCaP [6] = assay: Induction of apoptosis in human LNCaP cells assessed as increase in cleaved PARP level at 5 uM preincubated for 2 hrs followed by abiraterone addition and measured after 24 hrs by immunoblotting analysis; type: functional, cell-based; details: time 26.0 hrs
LNCaP [7] = assay: Inhibition of AFM induced autophagy in human LNCaP cells assessed as restoration of p62 expression preincubated for 2 hrs followed by medium change into aminoacid free medium for 24 hrs by immunoblotting analysis; type: functional, cell-based; details: dose 1-10 µM, time 26.0 hrs, DDE = dose-dependent effect
[8] = Inhibition of AFM induced autophagy in human LNCaP cells assessed as decrease in autophagic vesicles at 5 uM preincubated for 2 hrs followed by medium change into aminoacid free medium for 3 hrs by DAP green staining based assay; type: functional; details: time 5 hrs
LNCaP [9] = assay: Induction of apoptosis in human LNCaP cells assessed as increase in cleaved PARP level at 5 uM preincubated for 2 hrs followed by cabazitaxel addition and measured after 24 hrs by immunoblotting analysis; type: functional, cell-based; details: time 26.0 hrs
LNCaP [10] = assay: Induction of apoptosis in human LNCaP cells assessed as increase in cleaved PARP level at 5 uM preincubated for 2 hrs followed by enzalutamide addition and measured after 24 hrs by immunoblotting analysis; type: functional, cell-based; details: time 26.0 hrs
[11] = target: T2, Cysteine protease ATG4B (Homo sapiens) (UniProt Q9Y4P1); assay: Reversible inhibition of recombinant ATG4B (unknown origin) expressed in Escherichia coli BL21(DE3) pLysS cells at 100 uM using LC3-GST as substrate preincubated for 30 mins with 0.3 uM LC3-GST followed by dialysis and again incubated with 3 uM LC3-GST for 15 mins by coomassie brilliant blue staining based assay; details: time 45.0 min
T2 sequence (whole entry): T1 sequence (Q9Y4P1 whole entry)

[12] = target: T2, Cysteine protease ATG4B (Homo sapiens); assay: Inhibition of recombinant ATG4B (unknown origin) expressed in Escherichia coli BL21(DE3) pLysS cells at 10 uM using LC3-GST as substrate incubated for 3 hrs by coomassie brilliant blue staining based assay
[13] = target: T2, Cysteine protease ATG4B (Homo sapiens); assay: Inhibition of recombinant ATG4B (unknown origin) expressed in Escherichia coli BL21(DE3) pLysS cells at 20 to 50 uM using LC3-GST as substrate by coomassie brilliant blue staining based assay; details: dose 20-50 µM, time 15-180 min, TDE = time-dependent effect
LNCaP [14] = assay: Inhibition of AFM induced autophagy in human LNCaP cells assessed as restoration of p62 expression at 5 uM by Western blot analysis; type: functional, cell-based
LNCaP [15] = assay: Inhibition of AFM induced autophagy in human LNCaP cells assessed as suppression of autophagosome by DAP green staining based assay; type: functional, cell-based
LNCaP [16] = assay: Inhibition of abiraterone induced autophagy in human LNCaP cells at 10 uM preincubated for 2 hrs followed by abiraterone addition and measured after 24 hrs by DAP green staining based assay; type: functional, cell-based; details: time 26.0 hrs
LNCaP [17] = assay: Inhibition of enzalutamide induced autophagy in human LNCaP cells at 10 uM preincubated for 2 hrs followed by enzalutamide addition and measured after 24 hrs by DAP green staining based assay; type: functional, cell-based; details: time 26.0 hrs
LNCaP [18] = assay: Induction of apoptosis in human LNCaP cells assessed as increase in cleaved capase-9 expression at 10 uM preincubated for 2 hrs followed by abiraterone addition and measured after 24 hrs by Western blotting analysis; type: functional, cell-based; details: time 26.0 hrs
LNCaP [19] = assay: Induction of apoptosis in human LNCaP cells assessed as increase in cleaved PARP expression at 10 uM preincubated for 2 hrs followed by abiraterone addition and measured after 24 hrs by Western blotting analysis; type: functional, cell-based; details: time 26.0 hrs
[20] = target: T2, Cysteine protease ATG4B (Homo sapiens); assay: Inhibition of recombinant ATG4B (unknown origin) expressed in Escherichia coli BL21(DE3) pLysS cells at 100 uM using LC3-GST as substrate incubated for 3 hrs by coomassie brilliant blue staining based assay
LNCaP [21] = assay: Anticancer activity against human LNCaP cells assessed as reduction in cell viability incubated for 72 hrs by alamar blue assay; type: functional, cell-based; details: DDE = dose-dependent effect
LNCaP [22] = assay: Induction of apoptosis in human LNCaP cells assessed PARP cleavage at 10 uM incubated for 24 hrs by immunoblotting analysis; type: functional, cell-based
LNCaP [23] = assay: Induction of autophagy in human LNCaP cells assessed as increase in Ser403-phosphorylated P62 level at 1 to 10 uM incubated for 24 hrs by Western blot analysis; type: functional, cell-based; details: dose 1-10 µM
LNCaP [24] = assay: Induction of autophagy in human LNCaP cells assessed as increase in LC3-2 level at 1 to 10 uM incubated for 24 hrs by Western blot analysis; type: functional, cell-based; details: dose 1-10 µM
LNCaP [25] = assay: Induction of apoptosis in human LNCaP cells transfected with Atg4B siRNA at 10 uM incubated for 24 hrs by immunoblotting analysis; type: functional, cell-based
LNCaP [26] = assay: Induction of apoptosis in human LNCaP cells assessed as increase in cleaved capase-9 expression at 10 uM preincubated for 2 hrs followed by enzalutamide addition and measured after 24 hrs by Western blotting analysis; type: functional, cell-based; details: time 26.0 hrs
LNCaP [27] = assay: Induction of apoptosis in human LNCaP cells assessed as increase in cleaved PARP expression at 10 uM preincubated for 2 hrs followed by enzalutamide addition and measured after 24 hrs by Western blotting analysis; type: functional, cell-based; details: time 26.0 hrs

Chain of Phospholipase A2 (P04054 whole entry): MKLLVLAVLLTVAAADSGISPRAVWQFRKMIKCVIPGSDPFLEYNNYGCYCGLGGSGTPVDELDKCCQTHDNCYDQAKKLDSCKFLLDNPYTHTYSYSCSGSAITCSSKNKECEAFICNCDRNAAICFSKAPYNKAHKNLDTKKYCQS

| SMILES | IC50 (Cysteine protease ATG4B [1]) [µM] | IC50 (Phospholipase A2) [µM] | Ratio IC50 (Homo sapiens) | other results |
| --- | --- | --- | --- | --- |
| CCCCCCCc1ccc(C(=O)/C=C/C(=O)O)cc1 | 26 | 5.9 | 56 |  |
| CCCc1ccc(C(=O)/C=C/C(=O)O)cc1 | 130 |  |  |  |
| CCN(CC)CCCC(C)Nc1ccnc2cc(Cl)ccc12 (stereo unspecified) |  |  |  | Activity (LNCaP [2]): Active |
| CCCCCCCCCc1ccc(C(=O)/C=C/C(=O)O)cc1 | 21 | 8 | 93 |  |
| CCCCCc1ccc(C(=O)/C=C/C(=O)O)cc1 | 36 | 30 | 200 |  |
| CCCCCCCCCCCc1ccc(C(=O)/C=C/C(=O)O)cc1 | 11 | 3.5 | 80 | inhibition (LNCaP [3]): Active; Activity (LNCaP [4]): Active; Ki (Cysteine protease ATG4B [5]): 3.1 µM; Activity (LNCaP [6]): Active; inhibition (LNCaP [7]): Dde; inhibition at 5 µM [8]: 100%; Activity (LNCaP [9]): Active; Activity (LNCaP [10]): Active |
| O=C(O)/C=C/C(=O)c1ccccc1 | 580 |  |  |  |
| C[C@]12CC[C@H](O)CC1=CC[C@@H]1[C@@H]2CC[C@]2(C)C(c3cccnc3)=CC[C@@H]12 |  |  |  | Activity (LNCaP [21]): Dde; Activity (LNCaP [22]): Active; Activity (LNCaP [23]): Active; Activity (LNCaP [24]): Active; Activity (LNCaP [25]): Active; Activity (LNCaP [26]): Active; Activity (LNCaP [27]): Active |
| CCCCCCCCCCc1ccc(C(=O)/C=C/C(=O)O)cc1 | 13 | 1.6 | 30 |  |

Now from value to compound, other results behind:

| IC50 (Cysteine protease ATG4B [1]) [µM] | IC50 (Phospholipase A2) [µM] | SMILES | Ratio IC50 (Homo sapiens) | other results |
| --- | --- | --- | --- | --- |
| 46 | 5.4 | CCCCCCCCCCCCCCCc1ccc(C(=O)/C=C/C(=O)O)cc1 | 29 |  |
| 42 |  | CCCCCCCCCCCCCCCCCCCCCc1ccc(C(=O)/C=C/C(=O)O)cc1 |  |  |
| 21 | 7.1 | CCCCCCCCCCCCCc1ccc(C(=O)/C=C/C(=O)O)cc1 | 85 |  |
| 73 | 0.35 | CCCCCCCCCCCCCCCCCCCc1ccc(C(=O)/C=C/C(=O)O)cc1 | 12 |  |
| 47 |  | CCCCCCCCCCCCCCCCCc1ccc(C(=O)/C=C/C(=O)O)cc1 |  |  |
| 12 | 0.049 | CCCCCCCCCCCCCCCCCCc1ccc(C(=O)/C=C/C(=O)O)cc1 | 1 | inhibition [11]: Active; inhibition [12]: Active; inhibition [13]: Tde; Ki (Cysteine protease ATG4B [5]): 4.6 µM; inhibition (LNCaP [14]): Active; inhibition (LNCaP [15]): Active; inhibition (LNCaP [16]): Active; inhibition (LNCaP [17]): Active; Activity (LNCaP [18]): Active; Activity (LNCaP [19]): Active; inhibition [20]: Active |
| 13 | 1.3 | CCCCCCCCCCCCc1ccc(C(=O)/C=C/C(=O)O)cc1 | 24 |  |
